{"source": "patent US20220144841A1", "about": "“TRISUBSTITUTED PYRAZOLO [1,5-A] PYRIMIDINE COMPOUNDS AS CDK7 INHIBITORS” (THE TRANSLATIONAL GENOMICS RESEARCH INSTITUTE, priority 2019, published 2022)", "note": "Where a name gives a salt, the structure may show the parent alone."}
{"target": "T1, CDK7/CycH/MAT1 (Homo sapiens, UniProt P50613)", "T1 construct": "purchased ProQinase 0366-0360-4", "T1 sequence (P50613 whole entry)": "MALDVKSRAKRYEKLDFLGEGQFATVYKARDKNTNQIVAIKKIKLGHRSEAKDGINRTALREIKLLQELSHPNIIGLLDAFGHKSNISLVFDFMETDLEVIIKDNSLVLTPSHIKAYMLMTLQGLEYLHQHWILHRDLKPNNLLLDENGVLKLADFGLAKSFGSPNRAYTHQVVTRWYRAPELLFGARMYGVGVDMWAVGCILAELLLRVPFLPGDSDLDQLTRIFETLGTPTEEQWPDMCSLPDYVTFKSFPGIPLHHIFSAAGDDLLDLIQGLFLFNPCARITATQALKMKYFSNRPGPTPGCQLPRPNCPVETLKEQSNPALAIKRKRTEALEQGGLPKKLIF", "T1 sequence (P51946 whole entry partner)": "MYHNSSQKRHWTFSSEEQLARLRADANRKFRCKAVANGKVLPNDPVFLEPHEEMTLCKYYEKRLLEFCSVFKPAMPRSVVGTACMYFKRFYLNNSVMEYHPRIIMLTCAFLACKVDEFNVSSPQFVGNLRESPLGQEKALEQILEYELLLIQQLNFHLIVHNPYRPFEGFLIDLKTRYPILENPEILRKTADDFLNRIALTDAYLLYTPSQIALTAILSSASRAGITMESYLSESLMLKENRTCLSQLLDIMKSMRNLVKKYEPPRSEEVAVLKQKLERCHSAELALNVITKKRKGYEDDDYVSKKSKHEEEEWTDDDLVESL", "T1 sequence (P51948 whole entry partner)": "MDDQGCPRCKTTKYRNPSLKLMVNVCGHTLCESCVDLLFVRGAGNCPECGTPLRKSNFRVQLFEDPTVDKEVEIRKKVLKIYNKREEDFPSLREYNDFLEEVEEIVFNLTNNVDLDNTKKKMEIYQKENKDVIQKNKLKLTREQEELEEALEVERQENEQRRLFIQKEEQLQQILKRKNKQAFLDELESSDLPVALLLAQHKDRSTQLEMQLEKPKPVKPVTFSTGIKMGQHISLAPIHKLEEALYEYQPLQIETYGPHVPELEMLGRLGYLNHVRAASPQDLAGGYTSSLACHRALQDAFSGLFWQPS", "assay": "Kinase Glo Assay", "type": "biochemical", "conditions": "Kinase-Glo Assay was used (compounds marked *), ATP 1 μM, 60 minutes at room temperature", "protocol": "(§1) Assay Buffer: 50 mM HEPES, 3 mM MgCl2, 3 mM MnCl2, 1 mM DTT, 3 μM Na3VO4, pH 7.5\nKinase-Glo™ Assay (Promega #: V6711): ATP: 10 mM, Kinase-Glo™ Reagent 384-well white assay plates\nA ten point serial dilution of compound was prepared at 5× concentration in assay buffer with the final assay concentrations starting at 30 μM, 10 μM, 3 μM, 1 μM . . . 0 μM. Enzyme and ATP were used at 40 ng and 1 μM, respectively. The assay plate was set up by mixing the components in a total reaction volume of 10 μL per well. The plate was centrifuged gently for 10 seconds and incubated at room temperature (RT) for 60 minutes in the dark. The Kinase-Glo Reagent was added and incubated as recommended. The reaction was quantified by measuring luminescence on the Perkin Elmer Envision plate reader. Data was analyzed using Graphpad Prism 7 software.", "units": {"IC50": "nM"}}
{"smiles": "Clc1cccc(Nc2cc(N[C@H]3CCCNC3)nc3c(Cl)cnn23)c1", "note": "[Compound I-1, (S)-3-chloro-N^7-(3 - chlorophenyl)-N^5-(piperidin-3-yl)pyrazolo[1,5-a]pyrimidine-5,7-diamine]", "IC50": "100 to 1000"}
{"smiles": "Fc1cccc(Nc2cc(N[C@H]3CCCNC3)nc3c(Cl)cnn23)c1", "note": "[Compound I-2, (S)-3-chloro-N^7-(3-fluorophenyl)-N^5-(piperidin-3-yl)pyrazolo[1,5-a]pyrimidine-5,7-diamine]", "IC50": "< 100"}
{"smiles": "O[C@H]1CCNC[C@@H]1Nc1cc(Nc2cccc(F)c2)n2ncc(Cl)c2n1", "note": "[Compound I-3, (3S,4S)-3-((3-chloro-7-((3-fluorophenyl)amino)pyrazolo [1,5-a]pyrimidin-5-yl)amino)piperidin-4-ol]", "IC50": "> 1000"}
{"smiles": "Fc1cccc(Nc2cc(N[C@H]3CCCCNC3)nc3c(C4CC4)cnn23)c1", "note": "[Compound I-5, (S)-N^5-(azepan-3-yl)-3-cyclopropyl-N^7-(3-fluorophenyl)pyrazolo[1,5-a]pyrimidine-5,7-diamine]", "IC50": "> 1000"}
{"smiles": "Fc1cccc(Nc2cc(N[C@H]3CCCNC3)nc3c(C4CC4)cnn23)c1", "note": "[Compound I-19, hydrochloride]", "IC50": "100 to 1000"}
{"smiles": "Fc1cccc(Nc2cc(N[C@H]3CCCNC3)nc3c(C4CCC4)cnn23)c1", "note": "[Compound I-23, (S)-3-cyclobutyl-N^7-(3-fluorophenyl)-N^5-(piperidin-3-yl)pyrazolo[1,5-a]pyrimidine-5,7-diamine hydrochloride]", "IC50": "100 to 1000"}
{"smiles": "O[C@H]1CCNC[C@@H]1Nc1cc(Nc2cccc(F)c2)n2ncc(C3CCC3)c2n1", "note": "[Compound I-24, (3S,4S)-3-((3-cyclobutyl-7-((3-fluorophenyl)amino)pyrazolo [1,5-a]pyrimidin-5-yl)amino)piperidin-4-ol hydrochloride]", "IC50": "> 1000"}
{"smiles": "N#Cc1cnn2c(NCc3cc(Cl)cc(Cl)c3)cc(N[C@H]3CCCNC3)nc12", "note": "[Compound I-26, (S)-7-((3,5-dichlorobenzyl)amino)-5-((piperidin-3-yl)amino)pyrazolo[1,5-a]pyrimidine-3-carbonitrile]", "IC50": "100 to 1000"}
{"smiles": "N#Cc1cnn2c(NCc3cc(F)cc(Cl)c3)cc(N[C@H]3CCCNC3)nc12", "note": "[Compound I-27, (S)-7-((3-chloro-5-fluorobenzyl)amino)-5-((piperidin-3-yl)amino)pyrazolo[1,5-a]pyrimidine-3-carbonitrile]", "IC50": "100 to 1000"}
{"smiles": "N#Cc1cnn2c(NCc3cccc(Cl)c3)cc(N[C@H]3CCCNC3)nc12", "note": "[Compound I-28, (S)-7-((3-chlorobenzyl)amino)-5-((piperidin-3-yl)amino)pyrazolo[1,5-a]pyrimidine-3-carbonitrile]", "IC50": "100 to 1000"}
{"smiles": "Fc1cccc(CNc2cc(N[C@H]3CCCNC3)nc3c(C4CC4)cnn23)c1", "note": "[Compound I-32, (S)-3-cyclopropyl-N^7-(3-fluorobenzyl)-N^5-(piperidin-3-yl)pyrazolo[1,5-a]pyrimidine-5,7-diamine hydrochloride]", "IC50": "100 to 1000"}
{"smiles": "OCCN1CCC[C@H](Nc2cc(NCc3cccc(F)c3)n3ncc(C4CC4)c3n2)C1", "note": "[Compound I-33, (S)-2-(3-((3-cyclopropyl-7-((3-fluorobenzyl)amino)pyrazolo [1,5-a]pyrimidin-5-yl)amino)piperidin-1-yl)ethan-l-ol]", "IC50": "100 to 1000"}
{"target": "T1, CDK7/CycH/MAT1", "assay": "Kinase ADP-Glo Assay", "type": "biochemical", "conditions": "ADP-Glo assay (compounds without *), ATP 1 μM, 60 minutes at room temperature", "protocol": "as §1\nSubstrate RB: CTF Peptide (ProQinase #: 0040-0000-6)\nADP-Glo™ Assay (Promega #: V9101): ATP: 10 mM, ADP-Glo™ Reagent, Kinase Detection Reagent\n384-well white assay plates\nA ten point serial dilution of compound was prepared at 5× concentration in assay buffer with the final assay concentrations starting at 30 μM, 10 μM, 3 μM, 1 μM . . . 0 μM. Enzyme, substrate, and ATP were used at 40 ng, 200 ng (or 400 ng)^+ and 1 μM, respectively. The assay plate was set up by mixing the components in a total reaction volume of 10 μL per well. The plate was centrifuged gently for 10 seconds and incubated at room temperature (RT) for 60 minutes in the dark. The ADP-Glo Reagent and kinase detection reagent were added and incubated as recommended. The reaction was quantified by measuring luminescence on the Perkin Elmer Envision plate reader. Data was analyzed using Graphpad Prism 7 software. *With CDK2 enzyme, 400 ng of substrate was used.", "units": {"IC50": "nM"}}
{"smiles": "Cc1cc(Nc2cc(N[C@H]3CCCNC3)nc3c(C4CC4)cnn23)cc(C(F)(F)F)c1", "note": "[Compound I-62, (S)-3-cyclopropyl-N^7-(5-methyl-3-trifluoromethylphenyl)-N^5-(piperidin-3-yl)pyrazolo[1,5-a]pyrimidine-5,7-diamine]", "IC50": "100 to 1000"}
{"smiles": "Cc1cc(Nc2cc(N[C@H]3CCCNC3)nc3c(C4CCC4)cnn23)cc(C(F)(F)F)c1", "note": "[Compound I-63, (S)-3-cyclobutyl-N^7-(5-methyl-3-trifluoromethylphenyl)-N^5-(piperidin-3-yl)pyrazolo[1,5-a]pyrimidine-5,7-diamine]", "IC50": "< 100"}
{"smiles": "Fc1cc(Nc2cc(O[C@H]3CCCNC3)nc3c(C4CC4)cnn23)cc(C(F)(F)F)c1", "note": "[Compound I-64, (S)-3-cyclopropyl-N-(5-fluoro-3-trifluoromethylphenyl)-5-((piperidin-3-yl)oxy)pyrazolo[1,5-a]pyrimidin-7-amine]", "IC50": "100 to 1000"}
{"smiles": "Fc1cc(Nc2cc(O[C@H]3CCCNC3)nc3c(C4CCC4)cnn23)cc(C(F)(F)F)c1", "note": "[Compound I-65, (S)-3-cyclobutyl-N-(5-fluoro-3-trifluoromethylphenyl)-5-((piperidin-3-yl)oxy)pyrazolo[1,5-a]pyrimidin-7-amine]", "IC50": "< 100"}
{"smiles": "Cc1cc(Nc2cc(O[C@H]3CCCNC3)nc3c(C4CCC4)cnn23)cc(C(F)(F)F)c1", "note": "[Compound I-66, (S)-3-cyclobutyl-N-(5-methyl-3-trifluoromethylphenyl)-5-((piperidin-3-yl)oxy)pyrazolo[1,5-a]pyrimidin-7-amine]", "IC50": "< 100"}
{"smiles": "Cc1cc(C#N)cc(Nc2cc(N[C@H]3CCCNC3)nc3c(C4CC4)cnn23)c1", "note": "[Compound I-67, (S)-3-((3-cyclopropyl-5-((piperidin-3-yl)amino)pyrazolo[1,5-a]pyrimidin-7-yl)amino)-5-methylbenzonitrile]", "IC50": "100 to 1000"}
{"smiles": "Cc1cc(C#N)cc(Nc2cc(N[C@H]3CCCNC3)nc3c(C4CCC4)cnn23)c1", "note": "[Compound I-68, (S)-3-((3-cyclobutyl-5-((piperidin-3-yl)amino)pyrazolo[1,5-a]pyrimidin-7-yl)amino)-5-methylbenzonitrile]", "IC50": "< 100"}
{"smiles": "Cc1cc(C#N)cc(Nc2cc(O[C@H]3CCCNC3)nc3c(C4CC4)cnn23)c1", "note": "[Compound I-69, (S)-3-((3-cyclopropyl-5-((piperidin-3-yl)oxy)pyrazolo [1,5-a]pyrimidin-7-yl)amino)-5-methylbenzonitrile]", "IC50": "< 100"}
{"smiles": "Cc1cc(C#N)cc(Nc2cc(O[C@H]3CCCNC3)nc3c(C4CCC4)cnn23)c1", "note": "[Compound I-70, (S)-3-((3-cyclobutyl-5-((piperidin-3-yl)oxy)pyrazolo[1,5-a]pyrimidin-7-yl)amino)-5-methylbenzonitrile]", "IC50": "< 100"}
